This note sets out measurements from patent publication US12252524B2, “GIP/GLP1 co-agonist compounds” (Eli Lilly and Company, priority 2018, dated 2025).

The target of one experiment is human GLP-1R (Homo sapiens, UniProt P43220). Nature of the experiment: [125I]-GLP-1 binding (SPA), human GLP-1 receptor. Also noted: expressed in transfected cells; crude membranes. To be noted: read-out: hGLP1R Ki, (nM) (SEM, n). The method, boiled down: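 Assay buffer: HEPES 25 mM, pH 7.4, CaCl2 2.5 mM, MgCl2 1 mM, with EDTA-free protease inhibitors. Receptor came from crude cell membranes prepared by homogenization and centrifugation at 4° C. IC50s came from four-parameter fits (maximum, minimum, IC50, Hill slope) and were expressed as Ki geometric means with SEM.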

Experiment [1] deals with T1, gastric inhibitory peptide receptor (GIPR) (Homo sapiens, UniProt P48546).
T1 sequence (P48546 22-466): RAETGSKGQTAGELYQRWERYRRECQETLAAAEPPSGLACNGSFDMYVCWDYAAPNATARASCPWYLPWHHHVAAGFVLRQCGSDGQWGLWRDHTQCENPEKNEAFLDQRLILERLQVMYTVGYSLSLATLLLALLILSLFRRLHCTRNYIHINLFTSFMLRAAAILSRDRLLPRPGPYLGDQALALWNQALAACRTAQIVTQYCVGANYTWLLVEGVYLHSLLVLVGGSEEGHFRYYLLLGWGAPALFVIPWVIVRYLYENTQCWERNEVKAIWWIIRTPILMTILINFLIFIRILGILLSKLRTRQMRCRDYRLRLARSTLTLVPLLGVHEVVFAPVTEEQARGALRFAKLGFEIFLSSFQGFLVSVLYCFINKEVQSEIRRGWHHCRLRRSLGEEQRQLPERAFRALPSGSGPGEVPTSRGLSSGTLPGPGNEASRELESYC
The experiment can be described thus: cAMP pharmacological functional assay in presence of casein, hGIPR. The experiment is classed as cell-based. As to conditions: HEK293 cells expressing hGIPR, 0.1% Casein, geometric mean; read-out: hGIPR cAMP Rel EC50 nM (SEM, n).

The next experiment deals with T2, human GIP receptor (Homo sapiens, UniProt P48546).
T2 construct: expressed in transfected cells; crude membranes
T2 sequence (P48546 22-466): T1 sequence (P48546 22-466)
The experiment can be described thus: [125I]-GIP binding (SPA), human GIP receptor. As to conditions: read-out: hGIPR Ki, nM (SEM, n).

The next experiment has as its target T3, human Gcg receptor (Homo sapiens, UniProt P47871).
T3 construct: expressed in transfected cells; crude membranes
The experiment can be described thus: [125I]-Glucagon binding (SPA), human Gcg receptor. As to conditions: read-out: hGLcgR Ki, nM (SEM, n). An outline of the steps:
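Scintillation counts are taken after membranes and WGA beads incubate and settle for 12 hours at room temperature. Buffer is 25 mM HEPES, pH 7.4, with CaCl2, MgCl2, bacitracin and Tween-20. Ki values, from four-parameter IC50 fits, are geometric means over independent days.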

Experiment [2] concerns the target human GLP-1 receptor (GLP-1R) (Homo sapiens, UniProt P43220). Nature of the experiment: cAMP pharmacological functional assay in presence of casein, hGLP-1R. Format: cell-based. To be noted: HEK293 cells expressing hGLP-1R, 0.1% Casein, geometric mean; read-out: hGLP1R cAMP Rel EC50 nM (SEM, n).

Numbered stars: 1 amine (or outer) side, 2 acyl side, 3 side chain; on linkers, the order of the positions; unused ones are H or OH. Square brackets hold non-standard residues; d marks the D form. Side chains are listed from the residue outwards. Peptide text beside a SMILES is read from it. * marks the point of attachment. C20 diacid = O=C(O)CCCCCCCCCCCCCCCCCCC(=O)*; γGlu = O=C(O)[C@H](CCC(=O)[*:2])N[*:1]; AEEA = NCCOCCOCC(=O)O; Aib = CC(C)(N)C(=O)O

T3 sequence (P47871 26-477): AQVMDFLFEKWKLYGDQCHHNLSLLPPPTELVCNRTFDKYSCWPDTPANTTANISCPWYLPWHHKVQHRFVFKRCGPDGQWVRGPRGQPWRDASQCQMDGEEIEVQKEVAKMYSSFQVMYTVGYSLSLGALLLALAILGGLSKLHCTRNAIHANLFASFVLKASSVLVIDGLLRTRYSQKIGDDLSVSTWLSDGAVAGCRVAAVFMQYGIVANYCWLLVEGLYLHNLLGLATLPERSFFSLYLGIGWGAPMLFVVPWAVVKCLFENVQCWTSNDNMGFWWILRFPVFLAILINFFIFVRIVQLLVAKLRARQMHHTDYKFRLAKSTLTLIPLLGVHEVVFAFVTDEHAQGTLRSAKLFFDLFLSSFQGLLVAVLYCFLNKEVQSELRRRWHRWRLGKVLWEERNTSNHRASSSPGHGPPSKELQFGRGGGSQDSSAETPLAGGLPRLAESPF
Chain of human GLP-1R (P43220 24-463): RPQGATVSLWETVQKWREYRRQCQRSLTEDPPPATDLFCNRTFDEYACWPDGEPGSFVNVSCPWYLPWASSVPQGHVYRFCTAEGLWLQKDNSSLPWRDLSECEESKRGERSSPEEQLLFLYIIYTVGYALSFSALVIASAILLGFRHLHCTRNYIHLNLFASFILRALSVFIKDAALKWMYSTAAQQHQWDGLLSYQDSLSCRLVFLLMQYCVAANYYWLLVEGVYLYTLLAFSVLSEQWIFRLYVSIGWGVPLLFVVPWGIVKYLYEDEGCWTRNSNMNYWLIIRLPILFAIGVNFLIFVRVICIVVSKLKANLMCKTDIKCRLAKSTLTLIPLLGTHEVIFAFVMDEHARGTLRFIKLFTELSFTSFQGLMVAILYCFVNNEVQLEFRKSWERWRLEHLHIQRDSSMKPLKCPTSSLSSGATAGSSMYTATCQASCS
Chain of human GLP-1 receptor (GLP-1R) (P43220 24-463): as above

Consider `CC[C@H](C)[C@H](NC(=O)[C@H](CC(C)C)NC(=O)C(C)(Cc1ccc(O)cc1)NC(=O)[C@@H](CCC(=O)O)NC(=O)[C@@H](NC(=O)[C@H](Cc1ccccc1)NC(=O)[C@H](C)NC(=O)C(C)(C)NC(=O)[C@H](CCC(N)=O)NC(=O)[C@H](C)NC(=O)[C@H](CCCCNC(=O)COCCOCCNC(=O)COCCOCCNC(=O)[C@@H](N)CCCCNC(=O)CCCCCCCCCCCCCCCCCCC(=O)O)NC(=O)[C@H](CCCN)NC(=O)[C@H](CC(=O)O)NC(=O)[C@H](CC(C)C)NC(=O)C(C)(CC(C)C)NC(=O)[C@@H](NC(=O)[C@H](CO)NC(=O)[C@H](Cc1ccncc1)NC(=O)[C@H](CC(=O)O)NC(=O)[C@H](CO)NC(=O)[C@@H](NC(=O)C(C)(Cc1ccccc1F)NC(=O)[C@@H](NC(=O)CNC(=O)[C@H](CCC(=O)O)NC(=O)C(C)(C)NC(=O)[C@@H](N)Cc1ccc(O)cc1)[C@@H](C)O)[C@@H](C)O)[C@@H](C)CC)[C@@H](C)CC)C(=O)N[C@@H](C)C(=O)NCC(=O)NCC(=O)N1CCC[C@H]1C(=O)N[C@@H](CO)C(=O)N[C@@H](CO)C(=O)NCC(=O)N[C@@H](C)C(=O)N1CCC[C@H]1C(=O)N1CCC[C@H]1C(=O)N1CCC[C@H]1C(=O)N[C@@H](CO)C(N)=O` (stereo partly drawn) [Example 252], for which the Ki at human GLP-1R came to 0.383 nM; at human GIP receptor, 0.00971 nM; at human Gcg receptor, 26 nM. For the same compound, the EC50 in experiment [1] was 0.093 nM; in experiment [2], 0.0483 nM.
In the same order, the values of `CC[C@H](C)[C@H](NC(=O)[C@H](CC(C)C)NC(=O)[C@H](Cc1ccc(O)cc1)NC(=O)[C@H](CCC(=O)O)NC(=O)[C@@H](NC(=O)[C@H](Cc1ccccc1)NC(=O)[C@H](C)NC(=O)[C@H](C)NC(=O)[C@H](CCC(N)=O)NC(=O)[C@H](C)NC(=O)[C@H](CCCCNC(=O)COCCOCCNC(=O)COCCOCCNC(=O)CC[C@H](NC(=O)CCCCCCCCCCCCCCCCCCC(=O)O)C(=O)O)NC(=O)[C@H](CCCCN)NC(=O)[C@H](CC(=O)O)NC(=O)[C@H](CC(C)C)NC(=O)[C@H](CC(C)C)NC(=O)[C@@H](NC(=O)[C@H](CO)NC(=O)[C@H](Cc1ccc(O)cc1)NC(=O)[C@H](CC(=O)O)NC(=O)[C@H](CO)NC(=O)[C@@H](NC(=O)[C@H](Cc1ccccc1)NC(=O)[C@@H](NC(=O)CNC(=O)[C@H](CCC(=O)O)NC(=O)C(C)(C)NC(=O)[C@@H](N)Cc1ccc(O)cc1)[C@@H](C)O)[C@@H](C)O)[C@@H](C)CC)[C@@H](C)CC)C(=O)N[C@@H](CCC(=O)O)C(=O)NCC(=O)NCC(=O)N1CCC[C@H]1C(=O)N[C@@H](CO)C(=O)N[C@@H](CO)C(=O)NCC(=O)N[C@@H](C)C(=O)N1CCC[C@H]1C(=O)N1CCC[C@H]1C(=O)N1CCC[C@H]1C(=O)N[C@@H](CO)C(N)=O` [Example 253] (H-Y[Aib]EGTFTSDYSILLDKK([AEEA-AEEA-γGlu-C20 diacid])AQAAFIEYLIEGGPSSGAPPPS-NH2) are 2.57 nM, 0.138 nM, above 912 nM, 0.219 nM and 0.109 nM.
In the same order, the values of `CC[C@H](C)[C@H](NC(=O)[C@H](CC(C)C)NC(=O)[C@H](Cc1ccc(O)cc1)NC(=O)[C@H](CCC(=O)O)NC(=O)[C@@H](NC(=O)[C@H](Cc1ccccc1)NC(=O)[C@H](C)NC(=O)[C@H](CCC(N)=O)NC(=O)[C@H](CCC(N)=O)NC(=O)[C@H](C)NC(=O)[C@H](CCCCNC(=O)COCCOCCNC(=O)COCCOCCNC(=O)CC[C@H](NC(=O)CCCCCCCCCCCCCCCCCCC(=O)O)C(=O)O)NC(=O)[C@H](CCCCN)NC(=O)[C@H](CC(=O)O)NC(=O)[C@H](CC(C)C)NC(=O)[C@H](CC(C)C)NC(=O)[C@@H](NC(=O)[C@H](CO)NC(=O)[C@H](Cc1ccc(O)cc1)NC(=O)[C@H](CC(=O)O)NC(=O)[C@H](CO)NC(=O)[C@@H](NC(=O)[C@H](Cc1ccccc1)NC(=O)[C@@H](NC(=O)CNC(=O)[C@H](CCC(=O)O)NC(=O)C(C)(C)NC(=O)[C@@H](N)Cc1ccc(O)cc1)[C@@H](C)O)[C@@H](C)O)[C@@H](C)CC)[C@@H](C)CC)C(=O)N[C@@H](CCC(=O)O)C(=O)NCC(=O)NCC(=O)N1CCC[C@H]1C(=O)N[C@@H](CO)C(=O)N[C@@H](CO)C(=O)NCC(=O)N[C@@H](C)C(=O)N1CCC[C@H]1C(=O)N1CCC[C@H]1C(=O)N1CCC[C@H]1C(=O)N[C@@H](CO)C(N)=O` [Example 254] (H-Y[Aib]EGTFTSDYSILLDKK([AEEA-AEEA-γGlu-C20 diacid])AQQAFIEYLIEGGPSSGAPPPS-NH2) are 2.58 nM, 0.108 nM, 148 nM, 0.215 nM and 0.0553 nM.
As for `CC[C@H](C)[C@H](NC(=O)[C@H](CC(C)C)NC(=O)[C@H](Cc1ccc(O)cc1)NC(=O)[C@H](CCC(=O)O)NC(=O)[C@@H](NC(=O)[C@H](Cc1ccccc1)NC(=O)[C@H](C)NC(=O)[C@H](Cc1c[nH]cn1)NC(=O)[C@H](CCC(N)=O)NC(=O)[C@H](C)NC(=O)[C@H](CCCCNC(=O)COCCOCCNC(=O)COCCOCCNC(=O)CC[C@H](NC(=O)CCCCCCCCCCCCCCCCCCC(=O)O)C(=O)O)NC(=O)[C@H](CCCCN)NC(=O)[C@H](CC(=O)O)NC(=O)[C@H](CC(C)C)NC(=O)[C@H](CC(C)C)NC(=O)[C@@H](NC(=O)[C@H](CO)NC(=O)[C@H](Cc1ccc(O)cc1)NC(=O)[C@H](CC(=O)O)NC(=O)[C@H](CO)NC(=O)[C@@H](NC(=O)[C@H](Cc1ccccc1)NC(=O)[C@@H](NC(=O)CNC(=O)[C@H](CCC(=O)O)NC(=O)C(C)(C)NC(=O)[C@@H](N)Cc1ccc(O)cc1)[C@@H](C)O)[C@@H](C)O)[C@@H](C)CC)[C@@H](C)CC)C(=O)N[C@@H](CCC(=O)O)C(=O)NCC(=O)NCC(=O)N1CCC[C@H]1C(=O)N[C@@H](CO)C(=O)N[C@@H](CO)C(=O)NCC(=O)N[C@@H](C)C(=O)N1CCC[C@H]1C(=O)N1CCC[C@H]1C(=O)N1CCC[C@H]1C(=O)N[C@@H](CO)C(N)=O` [Example 255] (H-Y[Aib]EGTFTSDYSILLDKK([AEEA-AEEA-γGlu-C20 diacid])AQHAFIEYLIEGGPSSGAPPPS-NH2; N-terminus assumed), the Ki amounted to 2.58 nM at human GLP-1R, 0.0772 nM on human GIP receptor and 257 nM at human Gcg receptor. Besides, the results for the EC50 in experiment [1] and in experiment [2] were 0.102 nM and 0.0407 nM, respectively.
Taken in the same sequence, the figures for `CC[C@H](C)[C@H](NC(=O)[C@H](CC(C)C)NC(=O)[C@](C)(Cc1ccc(O)cc1)NC(=O)[C@@H](CCC(=O)O)NC(=O)[C@@H](NC(=O)[C@H](Cc1ccccc1)NC(=O)[C@H](CCC(=O)O)NC(=O)C(C)(C)NC(=O)[C@H](CCC(N)=O)NC(=O)[C@H](C)NC(=O)[C@H](CCCCNC(=O)COCCOCCNC(=O)COCCOCCNC(=O)CC[C@H](NC(=O)CCCCCCCCCCCCCCCCC(=O)O)C(=O)O)NC(=O)[C@H](CCCN)NC(=O)[C@H](CC(=O)O)NC(=O)[C@H](CC(C)C)NC(=O)[C@](C)(CC(C)C)NC(=O)[C@@H](NC(=O)[C@H](CO)NC(=O)[C@H](Cc1ccncc1)NC(=O)[C@H](CC(=O)O)NC(=O)[C@H](CO)NC(=O)[C@@H](NC(=O)[C@](C)(Cc1ccccc1F)NC(=O)[C@@H](NC(=O)CNC(=O)[C@H](CCC(=O)O)NC(=O)C(C)(C)NC(=O)[C@@H](N)Cc1ccc(O)cc1)[C@@H](C)O)[C@@H](C)O)[C@@H](C)CC)[C@@H](C)CC)C(=O)N[C@@H](CCC(=O)O)C(=O)NCC(=O)NCC(=O)N1CCC[C@H]1C(=O)N[C@@H](CO)C(=O)N[C@@H](CO)C(=O)NCC(N)=O` [Example 264] were 0.412 nM, 0.015 nM, 388 nM, 0.0196 nM and 0.0229 nM.
In the same order, the values of `CC[C@H](C)[C@H](NC(=O)[C@H](CC(C)C)NC(=O)C(C)(Cc1ccc(O)cc1)NC(=O)[C@@H](CCC(=O)O)NC(=O)[C@@H](NC(=O)[C@H](Cc1ccccc1)NC(=O)[C@H](CCC(=O)O)NC(=O)C(C)(C)NC(=O)[C@H](CCC(N)=O)NC(=O)[C@H](C)NC(=O)[C@H](CCCCNC(=O)COCCOCCNC(=O)COCCOCCNC(=O)CC[C@H](NC(=O)CCCCCCCCCCCCCCCCC(=O)O)C(=O)O)NC(=O)[C@H](CCCN)NC(=O)[C@H](CC(=O)O)NC(=O)[C@H](CC(C)C)NC(=O)C(C)(CC(C)C)NC(=O)[C@@H](NC(=O)[C@H](CO)NC(=O)[C@H](Cc1ccncc1)NC(=O)[C@H](CC(=O)O)NC(=O)[C@H](CO)NC(=O)[C@@H](NC(=O)C(C)(Cc1ccccc1F)NC(=O)[C@@H](NC(=O)CNC(=O)[C@H](CCC(=O)O)NC(=O)C(C)(C)NC(=O)[C@@H](N)Cc1ccc(O)cc1)[C@@H](C)O)[C@@H](C)O)[C@@H](C)CC)[C@@H](C)CC)C(=O)N[C@@H](CCC(=O)O)C(=O)NCC(=O)NCC(N)=O` (stereo partly drawn) [Example 265] are 0.537 nM, 0.0224 nM, 567 nM, 0.0229 nM and 0.0223 nM.
